Common to all, as to assay type: cell-based
Series [1] has as its system Pseudomonas aeruginosa ATCC27853. In words: Antibacterial activity, ATP assay (BacTiter-Glo). As to conditions: for ATP (%) mean, Pseudomonas aeruginosa: Table 4-1, ATP assay concentration: peptides 10, TOB 1.0, CPFX 1.0, OX 0.5, MEPM 1.0 μg/ml; for antibacterial activity against Pseudomonas aeruginosa compared with AG30-5C: 10 μg/mL, ATP assay. The method, then:
(§1) The antibacterial activity of the polypeptides was measured using an ATP assay method. That is, using BacTiter-Glo Microbial Cell Viability Assay kit available from PROMEGA, the antibacterial activity of the peptides was evaluated from the viability of bacteria. […] With respect to the strains, Staphylococcus aureus ATCC29213 (S. aureus ATCC29213) as Gram-positive bacteria, or, alternatively, Pseudomonas aeruginosa (P. aeruginosa ATCC27853) as Gram-negative bacteria, was used. The bacteria were cultured in media for 3 to 4 hours, and thereafter absorbances at A600 were measured. Bacterial suspensions were diluted with Mueller-Hinton broth (MHB) according to McFarland #0.5. Each strain was added so as to attain about 0.5−1×10^5 CFU/mL (final concentration) in terms of Escherichia coli. […] A solution to which the peptides were not added was considered as a negative control, and a solution to which tobramycin (TOB) was added was considered as a positive control. […] Relative values were calculated by comparison with the negative control, and these values were regarded as the viability. ATP (%) of the antibacterial activity was measured in the same manner as mentioned above, and the “minimum inhibitory concentration (MIC)” was measured as follows. MIC is the lowest concentration of an agent that may inhibit the growth of a bacterium. MIC is used as a parameter for the efficacy of an antibacterial agent, for the strength of bacterial sensitivity, or the like. The bacteria can grow (proliferate) when the concentration is not higher than MIC, and cannot grow when the concentration is higher than MIC. Its measurement is carried out according to a method defined as a standard method by Japanese Society of Chemotherapy or CLINICAL AND LABORATORY […] (CLSI), but, in this Example, its measurement was carried out by a broth microdilution method in accordance with “M100-S17/M7-A7” (Performance Standards for Antimicrobial Susceptibility Testing; Seventeenth Informational Supplement, Vol. 27 No. 1) published by CLSI on January, 2007. That is, sensitivity test of agents was carried out using a microtiter plate or test tubes. With respect to each strain, Escherichia coli: ATCC 25922 (Escherichia coli ATCC 25922), Pseudomonas aeruginosa: ATCC 27853 (Pseudomonas aeruginosa ATCC 27853), Staphylococcus aureus: ATCC29213 (Staphylococcus aureus ATCC29213), Klebsiella pneumoniae: JCM 1662 (Klebsiella pneumoniae JCM 1662), enterobacteria (1): JCM 1232 (Enterobacter cloacae JCM 1232), enterobacteria (2): JCM 1235 (Enterobacter aerogenes JCM 1235), and Staphylococcus epidermidis: JCM 2414 (Staphylococcus epidermidis JCM 2414), were used. […] As the concentrations of the agents in ATP assay, the concentrations as described in the Tables were used.

Series [2] has as its system Staphylococcus aureus ATCC29213. In words: Antibacterial activity, ATP assay (BacTiter-Glo). As to conditions: for ATP (%) mean, Staphylococcus aureus: Table 4-1, ATP assay concentration: peptides 10, TOB 1.0, OX 0.5 μg/ml; for antibacterial activity against Staphylococcus aureus compared with AG30-5C: 10 μg/mL, ATP assay. The method, then:
as §1

The test system of series [3] is human vascular endothelial cells and fibroblast cells (co-culture). In words: Lumen formation with angiogenesis kit KZ-1000 (section 7). The settings on record: for ability to form lumina: 0.5, 2.5 and 10 μg/mL; for The Area of Lumina (relative value, negative control as 100) / The Length of Lumina (relative value, negative control as 100): day 11. The method, then:
Using an angiogenesis kit available from KURABO […] LTD. (Product No.: KZ-1000), lumen formation by the polypeptides was evaluated. Vascular endothelial growth factor A (VEGF-A) as a positive control, and polypeptide-free, unstimulated group as a negative control, were used.
Using a special medium for angiogenesis which was attached to the kit, each polypeptide was prepared such that the concentration thereof was respectively 0.5, 2.5 and 10 μg/mL. To a 24-well plate in which cells were plated (the cells were those obtained by co-culturing human vascular endothelial cells and fibroblast cells at an optimum concentration) which was attached to the kit, the special medium for angiogenesis containing each polypeptide was added, and the cells were cultured at 37° C. under 5% CO2. The medium was replaced with a medium containing the same additive on day 4, day 7 and day 9 of culture. On day 11 from the beginning of the culture, staining was performed using a kit for staining lumina (for CD31 antibody staining) according to the following procedure.
The media were removed, and washing was performed with Dulbecco's phosphate buffered saline (PBS(−)). Thereafter, ice-cooled 70% ethanol was added to the plate, and the cells were fixed. Each well was washed with a blocking solution (Dulbecco's phosphate buffered saline (PBS(−)) containing 1% BSA). To each well, 0.5 mL of the primary antibody for CD31 staining (mouse anti-human CD31 antibody) 4000-fold diluted with the blocking solution was added, and then the plate was incubated for 60 minutes at 37° C. After the completion of the incubation, each well was washed totally 3 times with 1 mL of the blocking solution. Then, 0.5 mL of the secondary antibody solution (goat anti-mouse IgG/alkaline phosphatase conjugate) 500-fold diluted with the blocking solution was added to each well. The plate was incubated for 60 minutes at 37° C., and thereafter each well was washed 3 times with 1 mL of distilled water. During that period, 2 tablets of BCIP/NBT were dissolved into distilled water, and the obtained solution was filtered through a filter having a pore size of […] to prepare a substrate solution. To each well, 0.5 mL of the prepared BCIP/NBT substrate solution was added, and the plate was incubated at 37° C. until the lumina turned to deep purple (typically for 5-10 minutes). After the completion of the incubation, each well was washed 3 times with 1 mL of distilled water. After washing, the washing solution was removed by aspiration, and the plate was left to stand and dry naturally. After drying, photographs of each well were taken under a microscope.
Each of the obtained images was quantified using an angiogenesis quantification software. The area and length of formed lumina observed in each visual field were measured on the basis of the scale of an angiogenesis quantification software available from KURABO […] LTD. (angiogenesis quantification software Ver 1.0), and evaluated on the basis of the ratio of the area or length of polypeptide-containing groups relative to the area or length of the negative control group.

Where [4] appears, read: Table 3, peptides 10 μg/mL, 3 hours, ATP relative to negative control.

Peptide text beside a SMILES is read from it.

`C[C@@H](O)[C@H]1C(=O)N2C(C(=O)O)=C(S[C@@H]3CN[C@H](C(=O)N(C)C)C3)[C@H](C)[C@H]12` [MEPM, meropenem, reference compound]: in series [1], the “ATP (%) mean, Pseudomonas aeruginosa” value was found to be 20.2%.
Turning to `Cc1onc(-c2ccccc2)c1C(=O)N[C@@H]1C(=O)N2[C@@H]1SC(C)(C)[C@@H]2C(=O)O` [OX, oxacillin, reference compound], the “ATP (%) mean, Staphylococcus aureus” value in series [2] is listed as 72.8%. Also, the “ATP (%) mean, Pseudomonas aeruginosa” value in series [1] is recorded as 83.1%.
Turning to `CC[C@H](C)[C@H](NC(=O)[C@H](CC(C)C)NC(=O)[C@H](CCCCN)NC(=O)[C@H](CC(C)C)NC(=O)[C@@H](N)CCSC)C(=O)N[C@@H](Cc1ccccc1)C(=O)N[C@@H](CC(C)C)C(=O)N[C@@H](Cc1c[nH]cn1)C(=O)N[C@@H](CCCNC(=N)N)C(=O)N[C@@H](CC(C)C)C(=O)N[C@@H](CCCCN)C(=O)N[C@@H](CCCNC(=N)N)C(=O)N[C@@H](CCSC)C(=O)N[C@@H](CCCNC(=N)N)C(=O)N[C@@H](CCCCN)C(=O)N[C@@H](CCCNC(=N)N)C(=O)N[C@@H](CC(C)C)C(=O)N[C@@H](CCCCN)C(=O)N[C@@H](CCCNC(=N)N)C(=O)N[C@@H](CCCCN)C(=O)O` [SR-1] (H-MLKLIFLHRLKRMRKRLKRK-OH; N-terminus assumed), the “ability to form lumina” value in series [3] is reported as “high ability to form lumina”. In addition, in series [3] (polypeptide 0.5 μg/mL), the “The Area of Lumina (relative value, negative control as 100)” value worked out at 94.6 and the “The Length of Lumina (relative value, negative control as 100)” value turned out to be 97.4. Besides, in series [3] (polypeptide 10 μg/mL), the “The Area of Lumina (relative value, negative control as 100)” value is 156.6 and the “The Length of Lumina (relative value, negative control as 100)” value turned out to be 149.5. Also, in series [2], the “antibacterial activity against Staphylococcus aureus compared with AG30-5C” value is “higher antibacterial activity against Staphylococcus aureus than AG30-5C” and the “ATP (%) mean, Staphylococcus aureus” value stood at 5.2%. The “ATP (%) mean, Pseudomonas aeruginosa” value in series [1] is on record as 26.0%.
Turning to `CC(C)C[C@H](NC(=O)[C@H](CCCCN)NC(=O)[C@H](CCCNC(=N)N)NC(=O)[C@H](CCCCN)NC(=O)[C@H](CC(C)C)NC(=O)[C@H](CCCNC(=N)N)NC(=O)[C@H](CCCCN)NC(=O)[C@H](CCCNC(=N)N)NC(=O)[C@H](CC(C)C)NC(=O)[C@H](CCCNC(=N)N)NC(=O)[C@H](CCCNC(=N)N)NC(=O)[C@H](CCCCN)NC(=O)[C@H](CC(C)C)NC(=O)[C@H](CCCNC(=N)N)NC(=O)[C@H](Cc1c[nH]cn1)NC(=O)[C@H](CC(C)C)NC(=O)[C@H](Cc1ccccc1)NC(=O)[C@H](CCCNC(=N)N)NC(=O)[C@H](CC(C)C)NC(=O)[C@@H](N)CCC(=O)O)C(=O)N[C@@H](CCCNC(=N)N)C(N)=O` [SR-2] (H-ELRFLHRLKRRLRKRLKRKLR-NH2; N-terminus assumed), the “ability to form lumina” value in series [3] is listed as “high ability to form lumina”. In addition, in series [3] (polypeptide 0.5 μg/mL), the “The Area of Lumina (relative value, negative control as 100)” value is 110.7 and the “The Length of Lumina (relative value, negative control as 100)” value is 108.9. For the same compound, in series [3] (polypeptide 10 μg/mL), the “The Area of Lumina (relative value, negative control as 100)” value is 138.0 and the “The Length of Lumina (relative value, negative control as 100)” value amounted to 129.9. Besides, in series [2], the “antibacterial activity against Staphylococcus aureus compared with AG30-5C” value was “higher antibacterial activity against Staphylococcus aureus than AG30-5C” and the “ATP (%) mean, Staphylococcus aureus” value is on record as 4.4%. In series [1], the “antibacterial activity against Pseudomonas aeruginosa compared with AG30-5C” value is given as “higher antibacterial activity against Pseudomonas aeruginosa than AG30-5C” and the “ATP (%) mean, Pseudomonas aeruginosa” value is listed as 1.0%.
Regarding `CSCC[C@H](NC(=O)[C@H](CCCNC(=N)N)NC(=O)[C@H](CCCCN)NC(=O)[C@H](CC(C)C)NC(=O)[C@H](CCCNC(=N)N)NC(=O)[C@H](Cc1c[nH]cn1)NC(=O)[C@H](CC(C)C)NC(=O)[C@H](Cc1ccccc1)NC(=O)[C@H](CCCNC(=N)N)NC(=O)[C@H](CC(C)C)NC(=O)[C@@H](N)CCC(=O)O)C(=O)N[C@@H](CCCNC(=N)N)C(=O)N[C@@H](CCCCN)C(=O)N[C@@H](CCCNC(=N)N)C(=O)N[C@@H](CC(C)C)C(=O)N[C@@H](CCCCN)C(=O)N[C@@H](CCCNC(=N)N)C(=O)N[C@@H](CCCCN)C(=O)N[C@@H](CC(C)C)C(=O)N[C@@H](CCCNC(=N)N)C(N)=O` [SR-3] (H-ELRFLHRLKRMRKRLKRKLR-NH2; N-terminus assumed), the “ability to form lumina” value in series [3] is “high ability to form lumina”. Besides, in series [3] (polypeptide 0.5 μg/mL), the “The Area of Lumina (relative value, negative control as 100)” value was 100.8 and the “The Length of Lumina (relative value, negative control as 100)” value was found to be 101.9. Further, in series [3] (polypeptide 10 μg/mL), the “The Area of Lumina (relative value, negative control as 100)” value amounted to 118.0 and the “The Length of Lumina (relative value, negative control as 100)” value worked out at 122.6. Besides, in series [2], the “antibacterial activity against Staphylococcus aureus compared with AG30-5C” value is on record as “higher antibacterial activity against Staphylococcus aureus than AG30-5C” and the “ATP (%) mean, Staphylococcus aureus” value came to 3.5%. In series [1], the “antibacterial activity against Pseudomonas aeruginosa compared with AG30-5C” value was “higher antibacterial activity against Pseudomonas aeruginosa than AG30-5C” and the “ATP (%) mean, Pseudomonas aeruginosa” value came out at 3.3%.
With `NC[C@H]1O[C@H](O[C@H]2[C@H](O)[C@@H](O[C@H]3O[C@H](CO)[C@@H](O)[C@H](N)[C@H]3O)[C@H](N)C[C@@H]2N)[C@H](N)C[C@@H]1O` [TOB, tobramycin, reference compound], the “Viability (%) Staphylococcus aureus” value in series [2] (setting [4]) was 3.5%. Besides, the “ATP (%) mean, Staphylococcus aureus” value in series [2] came out at 3.1%. In addition, the “Viability (%) Pseudomonas aeruginosa” value in series [1] (setting [4]) was determined as 1.8%. Further, the “ATP (%) mean, Pseudomonas aeruginosa” value in series [1] stood at 1.7%.

Source of the values: patent US9376470B2, “Polypeptide having angiogenesis-inducing activity and antibacterial activity, and use thereof for medical purposes” (FunPep Inc., priority 2008, dated 2016).
